Data reported in publication PMC6499206, “Quantification of Volatile Metabolites Derived From Garlic (Allium sativum) in Human Urine” (Frontiers in Nutrition, 2019).

Experiment: Quantification of garlic-derived metabolites in human urine after ingestion of 3 g raw garlic (SIDA, SAFE, HRGC-MS / HRGC-GC-MS)
Format: in vivo
Design: metabolite in urine related to creatinine: unit not given here
Conditions: for highest detected concentration of the sample series: same bulb
Description: Human urine samples were obtained from 18 volunteers (age 22–38 years, mean 27 years; 11 females, 7 males); thereby, one volunteer conducted the whole experimental series twice. At the time of examination, volunteers reported no known illness that might have potentially influenced the metabolism or the excretion of urine. The test persons were instructed to avoid foods that were rich in sulfur-containing substances at the testing day as well as 2 days preceding the testing day, namely garlic, onion, wild garlic, chives, cabbage, and leek, and were only allowed to consume the garlic sample provided in the course of the experiments. Additionally, subjects were asked to keep records of the food (including food supplements) and beverages they consumed during these 3 testing days. Generally, the overall panelists' requirements were in accordance with our previous studies ([5], [16]).
On the sampling day, the outer garlic cloves of a whole garlic bulb were peeled and cut into ~3 mm cubes by using a garlic cutter (Genius GmbH, Limburg/Lahn, Germany). Subsequently these cubes were thoroughly mixed and aliquoted into 3 g portions. Three to four test persons conducted the experiment at the same day. Each test person was asked to ingest a garlic portion of 3 g. In total, eight consecutive urine samples were provided by each test person, comprising one whole urine set. The samples were collected in sterile brown glass bottles, with sampling times as follows: one sample was provided directly prior to garlic consumption. The series of the second to eighth sample was then obtained at about 0.5, 1, 2, 4, 6, 8, and 24 h after garlic consumption, respectively. Between the first urine sample (prior to garlic consumption) and the seventh urine sample (8 h after garlic consumption) test persons only spent urine at the specific time points mentioned before. Another sample was provided at the next morning (24 h after garlic consumption). Between the samples provided 8 and 24 h after garlic consumption no urine was collected. All samples were immediately placed into a −80°C freezer and were kept frozen until further analysis.
The samples of each set were termed according to their sampling time. The following list provides the time intervals that are related to the respective sample name: • - pre: before garlic consumption • - 0.5 h post: 0.4–0.8 h after garlic consumption • - 1 h post: 0.9–1.3 h after garlic consumption • - 2 h post: 1.8 h−2.2 h after garlic consumption • - 4 h post: 3.8–4.4 h after garlic consumption • - 6 h post: 5.8–6.4 h after garlic consumption • - 8 h post: 7.8–8.4 h after garlic consumption • - 24 h post: 23.8–25.6 h after garlic consumption
A creatinine kit (Labor+Technik Eberhard Lehmann GmbH, Berlin, Germany) was used to determine the creatinine content in each urine sample. The determination principle of this kit is based on the reaction of creatinine with picric acid under basic conditions (Jaffé reaction). The formed complex was detected photometrically at a wavelength of 492 nm.
For quantification purposes, the deuterated standards ^2H3-AMS, ^2H3-AMSO, and ^2H3-AMSO2 were added to the sample and stirred for 10 min. Subsequently, DCM was added in a ratio of 1:2 (DCM/human urine; v/v) and this solution was stirred for further 30 min at room temperature. To isolate the volatile fraction from the urine samples we then applied SAFE-distillation ([17]), thereby distilling the respective samples at 50°C. After completion of the distillation process, 10 mL of DCM were applied in each case to rinse the SAFE apparatus and to ensure complete transition of the volatile compounds. This process was repeated with another 10 mL of DCM. After thawing, the obtained aqueous distillate phase was extracted three times with 25 mL DCM. The organic phases were combined, dried over anhydrous Na2SO4 and concentrated to a total volume of 100 μL by means of Vigreux distillation and subsequent micro-distillation at 50°C. […]

[1] = U XII, 2 h post (1.85 h), 3 g raw garlic
[2] = U XII, 4 h post (3.80 h), 3 g raw garlic
[3] = U XII, 6 h post (5.82 h), 3 g raw garlic
[4] = U XII, 8 h post (7.82 h), 3 g raw garlic
[5] = U XII, 24 h post (23.92 h), 3 g raw garlic
[6] = U XII, pre (-0.08 h), 3 g raw garlic
[7] = U XIII, 0.5 h post (0.42 h), 3 g raw garlic
[8] = U XIII, 1 h post (0.92 h), 3 g raw garlic
[9] = U XIII, 2 h post (1.92 h), 3 g raw garlic
[10] = U XIII, 4 h post (3.92 h), 3 g raw garlic
[11] = U XIII, 6 h post (5.92 h), 3 g raw garlic
[12] = U XIII, 8 h post (7.92 h), 3 g raw garlic
[13] = U XIII, 24 h post (23.92 h), 3 g raw garlic
[14] = U XIII, pre (-0.08 h), 3 g raw garlic

- metabolite concentration in urine [1]: 48.2 µg/kg
- metabolite concentration in urine, creatinine-normalized [1]: 72.4 µg/mmol creatinine
- metabolite concentration in urine [2]: 76.1 µg/kg
- metabolite concentration in urine, creatinine-normalized [2]: 28.5 µg/mmol creatinine
- metabolite concentration in urine [3]: 82.8 µg/kg
- metabolite concentration in urine, creatinine-normalized [3]: 14.3 µg/mmol creatinine
- metabolite concentration in urine [4]: 61.4 µg/kg
- metabolite concentration in urine, creatinine-normalized [4]: 21.6 µg/mmol creatinine
- metabolite concentration in urine [5]: 6.6 µg/kg
- metabolite concentration in urine, creatinine-normalized [5]: 0.4 µg/mmol creatinine
- metabolite concentration in urine [6]: 2.0 µg/kg
- metabolite concentration in urine, creatinine-normalized [6]: 0.1 µg/mmol creatinine
- metabolite concentration in urine [7]: 19.8 µg/kg
- metabolite concentration in urine, creatinine-normalized [7]: 12.4 µg/mmol creatinine
- metabolite concentration in urine [8]: 145.0 µg/kg
- metabolite concentration in urine, creatinine-normalized [8]: 58.5 µg/mmol creatinine
- metabolite concentration in urine [9]: 182.5 µg/kg
- metabolite concentration in urine, creatinine-normalized [9]: 52.4 µg/mmol creatinine
- metabolite concentration in urine [10]: 174.3 µg/kg
- metabolite concentration in urine, creatinine-normalized [10]: 36.8 µg/mmol creatinine
- metabolite concentration in urine [11]: 105.0 µg/kg
- metabolite concentration in urine, creatinine-normalized [11]: 9.0 µg/mmol creatinine
- metabolite concentration in urine [12]: 67.5 µg/kg
- metabolite concentration in urine, creatinine-normalized [12]: 7.7 µg/mmol creatinine
- metabolite concentration in urine [13]: 8.5 µg/kg
- metabolite concentration in urine, creatinine-normalized [13]: 1.0 µg/mmol creatinine
- metabolite concentration in urine [14]: < LOD^3
- metabolite concentration in urine, creatinine-normalized [14]: < LOD^3
- variation factor of the concentration maxima between test persons (Urine XIII-XVI, highest vs lowest maximum): 2.2
- highest detected concentration of the sample series (Urine XIII, 3 g raw garlic): 58.5 μg/mmol creatinine
- highest detected concentration of the sample series (Urine XIV (AMS: printed Urine UIV), 3 g raw garlic): 60.1 μg/mmol creatinine
- highest detected concentration of the sample series (Urine XV, 3 g raw garlic): 83.1 μg/mmol creatinine
- time of highest concentration in urine after garlic consumption (Urine XVI, 3 g raw garlic): 4 h
- highest detected concentration of the sample series (Urine XVI, 3 g raw garlic): 37.19 μg/mmol creatinine
- metabolite in urine related to creatinine (urine set U XIX, 0.5 h post (0.50 h), garlic 3.1133 g): 4.4
- metabolite in urine related to creatinine (urine set U XIX, 1 h post (1.00 h), garlic 3.1133 g): 41.2
- metabolite in urine related to creatinine (urine set U XIX, 2 h post (2.00 h), garlic 3.1133 g): 77.6
- metabolite in urine related to creatinine (urine set U XIX, 4 h post (4.00 h), garlic 3.1133 g): 41.4
- metabolite in urine related to creatinine (urine set U XIX, 6 h post (6.20 h), garlic 3.1133 g): 30.7
- metabolite in urine related to creatinine (urine set U XIX, 8 h post (7.93 h), garlic 3.1133 g): 24.3
- metabolite in urine related to creatinine (urine set U XIX, 24 h post (23.98 h), garlic 3.1133 g): 1.8
- metabolite in urine related to creatinine (urine set U XIX, pre (-0.07 h), garlic 3.1133 g): < LOD^3
- metabolite in urine related to creatinine (urine set U XVII, 0.5 h post (0.58 h), garlic 3.1559 g): 0.3
- metabolite in urine related to creatinine (urine set U XVII, 1 h post (1.00 h), garlic 3.1559 g): 4.7
- metabolite in urine related to creatinine (urine set U XVII, 2 h post (2.17 h), garlic 3.1559 g): 32.1
- metabolite in urine related to creatinine (urine set U XVII, 4 h post (4.00 h), garlic 3.1559 g): 27.6
- metabolite in urine related to creatinine (urine set U XVII, 6 h post (6.08 h), garlic 3.1559 g): 3.0
- metabolite in urine related to creatinine (urine set U XVII, 8 h post (8.00 h), garlic 3.1559 g): 5.1
- metabolite in urine related to creatinine (urine set U XVII, 24 h post (23.92 h), garlic 3.1559 g): 0.7
- metabolite in urine related to creatinine (urine set U XVII, pre (-0.08 h), garlic 3.1559 g): traces^3
- metabolite in urine related to creatinine (urine set U XVIII, 0.5 h post (0.63 h), garlic 3.1981 g): 14.7
- metabolite in urine related to creatinine (urine set U XVIII, 1 h post (1.05 h), garlic 3.1981 g): 40.5
- metabolite in urine related to creatinine (urine set U XVIII, 2 h post (2.00 h), garlic 3.1981 g): 68.1
- metabolite in urine related to creatinine (urine set U XVIII, 4 h post (3.97 h), garlic 3.1981 g): 56.4
- metabolite in urine related to creatinine (urine set U XVIII, 6 h post (5.97 h), garlic 3.1981 g): 26.3
- metabolite in urine related to creatinine (urine set U XVIII, 8 h post (8.30 h), garlic 3.1981 g): 42.2
- metabolite in urine related to creatinine (urine set U XVIII, 24 h post (24.13 h), garlic 3.1981 g): 1.3
- metabolite in urine related to creatinine (urine set U XVIII, pre (-0.08 h), garlic 3.1981 g): < LOD^3
Compound: C=CCS(C)(=O)=O [AMSO2, allyl methyl sulfone]
